Data set [1] in a line: UV absorption of the compounds of Table 2 (absorption maximum and specific extinction). The class given is physicochemical. More on the design: λmax: unit not given beside the values. To be noted: for λmax: UV absorption maximum; for E^11: specific extinction at λmax.
The conditions of data set [2]: used alone or in combination with UV-B filters; cited from earlier work.

As to `CCCCC(CC)COC(=O)c1ccc(NC=C(C#N)C(=O)C(C)(C)C)cc1` (stereo not drawn) [Compound 1], in data set [1] (Table 2), the λmax worked out at 346 and the “E^11” value came to 860. In the same order, the values of `Cc1cccc(NC=C(C#N)C(=O)C(C)(C)C)c1` [Compound 2] are 338 and 978. In the same order, the values of `COc1ccc(NC=C(C#N)C(=O)C(C)(C)C)cc1` [Compound 3] are 348 and 841.

For `CC(C)(C)C(=O)C(C#N)=CNc1ccc(C(C)(C)C)cc1` [Compound 4], in data set [1] (Table 2), the λmax was 342 and the “E^11” value was 888. The corresponding values for `CCCCc1ccc(NC=C(C#N)C(=O)C(C)(C)C)cc1` [Compound 5] are 342 and 884. Consider `CCCCC(CC)CNC(=O)c1ccc(NC=C(C#N)C(=O)C(C)(C)C)cc1` (stereo not drawn) [Compound 6], for which, in data set [1] (Table 2), the λmax was determined as 346 and the “E^11” value is 773. Take `CC(C)c1ccc(NC=C(C#N)C(=O)C(C)(C)C)cc1` [Compound 7]: in data set [1] (Table 2), the λmax came out at 342 and the “E^11” value is on record as 903. The corresponding values for `CCCc1ccc(NC=C(C#N)C(=O)C(C)(C)C)cc1` [Compound 8] are 342 and 918. For `CCCCC(CC)COC(=O)c1ccccc1NC=C(C#N)C(=O)C(C)(C)C` (stereo not drawn) [Compound 9], in data set [1] (Table 2), the λmax is 348 and the “E^11” value came to 717.

In the case of `CC(C)(C)C(=O)C(C#N)=CNc1ccccc1C#N` [Compound 10], in data set [1] (Table 2), the λmax is 338 and the “E^11” value was determined as 995. In the same order, the values of `CC(C)Oc1cccc(NC=C(C#N)C(=O)C(C)(C)C)c1` [Compound 12] are 340 and 829. The molecule `CC(C)(C)C(=O)C(C#N)=CNc1ccccc1C(=O)O.OCCN(CCO)CCO` [Compound 13] gave a λmax in data set [1] (Table 2) of 346. In data set [1] (Table 2, (water)), the “E^11” value is recorded as 667 (water).

For the molecule `COc1ccc(OC)c(NC=C(C#N)C(=O)C(C)(C)C)c1` [Compound 14], in data set [1] (Table 2), the λmax is given as 362 and the “E^11” value is 491.

In the case of `CC(C)(C)C(=O)C(C#N)=CNc1ccccc1C(=O)O` [Compound 15], in data set [1] (Table 2), the λmax came out at 346 and the “E^11” value came out at 965. With `CC(C)(C)C(=O)C(C#N)=CNc1ccc(S(=O)(=O)O)cc1.OCCN(CCO)CCO` [Compound 16], the λmax in data set [1] (Table 2) is 340. Moreover, the “E^11” value in data set [1] (Table 2, (water)) is on record as 666 (water). In the same order, the values of `CC(C)(C)C(=O)C(C#N)=CNc1ccc(S(=O)(=O)[O-])cc1.[Na+]` [Compound 17] are 340 and 1010 (water). In the case of `CCOc1ccccc1NC=C(C#N)C(=O)C(C)(C)C` [Compound 18], in data set [1] (Table 2), the λmax turned out to be 352 and the “E^11” value is 876.

`COC(=O)c1ccccc1NC=C(C#N)C(=O)C(C)(C)C` [Compound 19]: in data set [1] (Table 2), the λmax is 348 and the “E^11” value came to 995.

Turning to `CC(C)COC(=O)c1ccccc1NC=C(C#N)C(=O)C(C)(C)C` [Compound 20], in data set [1] (Table 2), the λmax is on record as 348 and the “E^11” value was 864. The corresponding values for `CCCCOC(=O)c1ccccc1NC=C(C#N)C(=O)C(C)(C)C` [Compound 21] are 346 and 825.

As for `CCCCOC(=O)c1ccccc1NC=C(C(C)=O)C(C)=O` [Compound 25], in data set [1] (Table 2), the λmax is reported as 344 and the “E^11” value is 938. In the same order, the values of `COc1cccc(NC=C(C(C)=O)C(C)=O)c1` [Compound 26] are 336 and 1035.

For `CCCCC(CC)COC(=O)c1ccc(NC=C(C(C)=O)C(C)=O)cc1` (stereo not drawn) [Compound 27], in data set [1] (Table 2), the λmax was found to be 346 and the “E^11” value stood at 1049.

Regarding `CCCCC(CC)COC(=O)c1ccccc1NC=C(C(C)=O)C(=O)CC` (stereo not drawn) [Compound 28], in data set [1] (Table 2), the λmax worked out at 346 and the “E^11” value was 757. With `CCCCC(CC)COC(=O)c1ccc(NC=C(C(C)=O)C(=O)OC)cc1` (stereo not drawn) [Compound 29], in data set [1] (Table 2), the λmax came to 346 and the “E^11” value amounted to 941. In the same order, the values of `COC(=O)/C(=C\Nc1ccccc1C(=O)OC)C(C)=O` [Compound 30] are 344 and 1008. For `CCCCC(CC)COC(=O)c1ccccc1NC=C(C(C)=O)C(=O)OC(C)(C)C` (stereo not drawn) [Compound 31], in data set [1] (Table 2), the λmax is listed as 344 and the “E^11” value was 717. Take `CCCCC(CC)COC(=O)C(C#N)=CNc1ccc(OC)cc1OC` (stereo not drawn) [Compound 32]: in data set [1] (Table 2), the λmax is reported as 346 and the “E^11” value is 646. As to `CCCCC(CC)COC(=O)C(C#N)=CNc1cc(OC)ccc1OC` (stereo not drawn) [Compound 33], in data set [1] (Table 2), the λmax stood at 350 and the “E^11” value worked out at 612. As for `CCCCC(CC)COC(=O)C(C#N)=CNc1cc(OC)cc(OC)c1` (stereo not drawn) [Compound 34], in data set [1] (Table 2), the λmax is listed as 322 and the “E^11” value is given as 761. Regarding `CCCCC(CC)COC(=O)C(C#N)=CNc1ccc(C(=O)OCC)cc1` (stereo not drawn) [Compound 35], in data set [1] (Table 2), the λmax was 332 and the “E^11” value was 1105.

For the molecule `CCCCC(CC)COC(=O)C(C#N)=CNc1ccccc1C(=O)OC` (stereo not drawn) [Compound 36], in data set [1] (Table 2), the λmax is 336 and the “E^11” value turned out to be 752. The corresponding values for `CCOC(=O)C(=CNc1ccccc1C(=O)OC)C(=O)OCC` [Compound 37] are 336 and 890. In the same order, the values of `CCCCC(CC)COC(=O)c1ccccc1NC=C(C(=O)OCC)C(=O)OCC` (stereo not drawn) [Compound 38] are 335 and 630. The corresponding values for `CCCCC(CC)COC(=O)c1ccc(NC=C(C(=O)OCC)C(=O)OCC)cc1` (stereo not drawn) [Compound 39] are 320 and 700. Regarding `CCCCC(CC)COC(=O)c1ccccc1NC=C1CCC(C)(C)CC1=O` (stereo not drawn) [Compound 40], in data set [1] (Table 2), the λmax came to 358 and the “E^11” value was determined as 743. The corresponding values for `CCCCC(CC)COC(=O)c1ccc(NC=C(C#N)C#N)cc1` (stereo not drawn) [Compound 41] are 330 and 1191. In the same order, the values of `CCCCC(CC)COC(=O)c1ccc(NC=C2C(=O)c3ccccc3C2=O)cc1` (stereo not drawn) [Compound 42] are 374 and 1175. In the same order, the values of `CCCCC(CC)COC(=O)c1ccc(NC=C(C#N)C(=O)c2ccccc2)cc1` (stereo not drawn) [Compound 43] are 362 and 869. Consider `CCCCC(CC)COC(=O)c1ccc(NC=C2C(=O)OC(C)(C)OC2=O)cc1` (stereo not drawn) [Compound 44], for which, in data set [1] (Table 2), the λmax is listed as 336 and the “E^11” value was determined as 896. Turning to `COc1ccc(C(=O)CC(=O)c2ccc(C(C)(C)C)cc2)cc1` [PARSOL 1789, 4-(1,1-dimethylethyl)-4-methoxy-dibenzoylmethane], in data set [2], the photochemical stability entry is recorded as “not sufficiently photochemically stable”.
